Drawing on ChEMBL document CHEMBL1130815, “Anti-Helicobacter pylori agents. 2. Structure activity relationships in a new series of 2-alkylguanidino-4-furylthiazoles” (1998), this text covers MIC, inhibition in vivo and Inhibition for 15 compounds.

Converted amounts (≈) assume the structure as drawn. Some results are limits rather than exact numbers.

One assay has as its system Bacteroides fragilis. In words: Compound was evaluated for antimicrobial activity against Bacteroides fragilis. Type of assay: functional.
A further assay relates to Clostridium perfringens. Put plainly: Compound was evaluated for antimicrobial activity against Clostridium perfringens. Type of assay: functional.
Another assay concerns Campylobacter jejuni. In words: Compound was evaluated for antimicrobial activity against Campylobacter jejuni. Type of assay: functional.
The test system of a further assay is Clostridioides difficile. In words: Compound was evaluated for antimicrobial activity against Clostridium difficile. Type of assay: functional.
Another assay deals with Helicobacter pylori. Put plainly: Compound was evaluated for antimicrobial activity against Helicobacter pylori. Type of assay: functional.
Another assay relates to Neisseria gonorrhoeae. Put plainly: Compound was evaluated for antimicrobial activity against Neisseria gonorrhoeae. Type of assay: functional.
The subject of the next assay is Neisseria meningitidis. Put plainly: Compound was evaluated for antimicrobial activity against Neisseria meningitidis. Type of assay: functional.
A further assay has as its system Canis familiaris. Put plainly: Compound was evaluated for the inhibition of gastrin-stimulated gastric acid secretion in conscious heidenhain pouch dogs when administered 1 mg/kg perorally. Type of assay: functional. Conditions: Canis lupus familiaris, Stomach, route oral.
The species entered for the next assay is Cavia porcellus. In words: Inhibition of histamine-stimulated chronotropic response in the isolated guinea pig right atrium at 1*10e-6 g/mL. Type of assay: functional, Cardiac atrium.
The next assay relates to Rattus norvegicus. In words: Inhibition of histamine-stimulated gastric acid secretion in lumen-perfused stomach of the anaesthetized rats when administered 1 mg/kg intravenously. Type of assay: functional. Conditions: route intravenous.

As usually defined, the MIC is the least concentration at which growth counts as inhibited. The inhibition in vivo is how much of the control response was suppressed. In general, Inhibition refers to the change of the read-out against control, counted positive when it falls. A lower Inhibition goes with a weak effect.

As for `CC1(C)S[C@@H]2[C@H](NC(=O)[C@H](N)c3ccc(O)cc3)C(=O)N2[C@H]1C(=O)O` [AMOXICILLIN], the minimal inhibitory concentration (MIC) with Bacteroides fragilis amounted to 2.1 µg/mL (≈ 5.75 µM); with Clostridium perfringens it was 0.027 µg/mL (≈ 0.0739 µM); against Campylobacter jejuni, 2.2 µg/mL (≈ 6.02 µM); against Clostridioides difficile, 0.28 µg/mL (≈ 0.766 µM); in the assay on Helicobacter pylori, 0.021 µg/mL (≈ 0.0575 µM); with Neisseria gonorrhoeae, 7.7 µg/mL (≈ 21.1 µM). In the assay with Neisseria meningitidis, the minimum inhibitory concentration (MIC) came out at 0.056 µg/mL (≈ 0.153 µM).

The compound `CCOCCCC/N=C(\N)Nc1nc(-c2ccc(CNC(C)=O)o2)cs1` showed an MIC with Helicobacter pylori of 1.1 µg/mL (≈ 2.9 µM).

`C#CCNC(=N)Nc1nc(-c2ccc(CNC(C)=O)o2)cs1` showed an MIC with Helicobacter pylori of 8.2 µg/mL (≈ 25.8 µM).

For the compound `CC(=O)NCc1ccc(-c2csc(NC(=N)NCCO)n2)o1`, 34 µg/mL (≈ 105 µM) was the least that counted as inhibitory against Helicobacter pylori (MIC).

As to `Cc1ncc([N+](=O)[O-])n1CCO` [METRONIDAZOLE], the MIC was 0.59 µg/mL (≈ 3.45 µM) against Bacteroides fragilis; 1.75 µg/mL (≈ 10.2 µM) with Clostridium perfringens; 30 µg/mL (≈ 175 µM) with Campylobacter jejuni; 0.2 µg/mL (≈ 1.17 µM) in the assay on Clostridioides difficile; 5.4 µg/mL (≈ 31.6 µM) in the assay on Helicobacter pylori; over 100 µg/mL against Neisseria gonorrhoeae. The compound also came in with an MIC in the assay on Neisseria meningitidis of over 100 µg/mL.

`CCOCC/N=C(\NCCOCC)Nc1nc(-c2ccc(CNC(C)=O)o2)cs1` came in with a minimum inhibitory concentration (MIC) against Helicobacter pylori of 81 µg/mL (≈ 191 µM).

Regarding `CC(=O)NCc1ccc(-c2csc(NC(=N)NCC3CC3)n2)o1`, in the assay with Helicobacter pylori, the minimal inhibitory concentration (MIC) worked out at 1.46 µg/mL (≈ 4.38 µM).

For the compound BISMUTH SUBSALICYLATE, the minimum inhibitory concentration (MIC) is 50 µg/mL against Bacteroides fragilis; over 100 µg/mL with Clostridium perfringens; 7.4 µg/mL with Campylobacter jejuni; 50 µg/mL with Clostridioides difficile; 8.7 µg/mL with Helicobacter pylori; 4.7 µg/mL against Neisseria gonorrhoeae. Besides, in the assay with Neisseria meningitidis, the MIC was 12.5 µg/mL.

`CCCCOCC/N=C(\N)Nc1nc(-c2ccc(CNC(C)=O)o2)cs1` displayed an MIC against Helicobacter pylori of 1.43 µg/mL (≈ 3.77 µM).

As for `CN/C(=N\CCSCc1nc[nH]c1C)NC#N` [CIMETIDINE], the inhibition in vivo at 1 mg/kg in the assay with Canis familiaris worked out at 53%; in the assay on Rattus norvegicus, 22%. The Inhibition in the assay filed under Cavia porcellus worked out at 43%.

Consider `CSCC/N=C(\N)Nc1nc(-c2ccc(CNC(C)=O)o2)cs1`, for which the lowest concentration to inhibit growth against Helicobacter pylori (MIC) was 1.67 µg/mL (≈ 4.72 µM).

With `CC(=O)NCc1ccc(-c2csc(NC(=N)NCCN3CCCCC3)n2)o1`, in the assay with Helicobacter pylori, the MIC amounted to 27 µg/mL (≈ 69.1 µM).

In turn, `CC(=O)NCc1ccc(-c2csc(NC(=N)NC3CCCCC3)n2)o1` showed an MIC in the assay with Helicobacter pylori of 1.06 µg/mL (≈ 2.93 µM).

Regarding `COCC/N=C(\N)Nc1nc(-c2ccc(CNC(C)=O)o2)cs1`, in the assay on Helicobacter pylori, the MIC was found to be 1.45 µg/mL (≈ 4.3 µM).

The compound `C=CCNC(=N)Nc1nc(-c2ccc(CNC(C)=O)o2)cs1` returned a minimum inhibitory concentration (MIC) against Helicobacter pylori of 1.45 µg/mL (≈ 4.54 µM).
